Source: US8008354B2, “Death receptor sensitizing compounds and methods of use therefor” (Burnham Institute for Medical Research, priority 2006, dated 2011)
Where a name gives a salt, the structure may show the parent alone.

Assays:
PPC-1 cells [1] = test: MTT cell viability of PPC-1 cells treated with compound with or without CH-11 anti-FAS antibody; format: cell-based; conditions: for LD50 (μM) (PPCl, CH-11): PPC-1 cells with CH-11 100 ng/mL, MTT 24 hours, LD50 = concentration that reduces cell viability by 50%; for IC50: Homo sapiens, PPC-1, 24 h, compound alone without CH-11, MTT 24 hours, read-out: LD50 (μM) PPCl
Procedure: FIGS. 2A-C. […] PPC-1 cells (1×10^4) were seeded in 96 well plates. The next day, cells were treated with increasing concentrations of the sensitizing compounds with (open squares) and without (closed squares) CH-11 antibody (100 ng/mL). Cell viability was measured 24 hours later by MTT assay. Cell viability is expressed as a mean percentage of untreated cells+SD (n=3). The Chembridge identification numbers of the compounds are provided.
High throughput screening. […] PPC-1 cells (1×10^4) were seeded overnight into 96 well, flat-bottom plates (Costar, Cambridge, Mass.) in 100 μL of medium containing 2.5% FCS. […] CH-11 antibody (100 ng/mL) was then added, and the cells were incubated for 24 hours before assessing cell viability by a 3-(4,5-Dimethylthiazol-2-yl)-2,5-diphenyltetrazolium Bromide (MTT) dye reduction assay (Sigma).
Cell death assays. […] Absorbance readings were plotted against a standard curve to derive the corresponding cell number, and cell viability was expressed as a percentage relative to untreated cells.

PPC-1 cells [2] = test: Annexin V apoptosis of PPC-1 cells with CH-11 and sensitizer, with or without zVAD-fmk; format: cell-based, human; conditions: zVAD-fmk 100 μM, annexin V staining
Procedure: FIG. 6. Characterization of the mechanism of FAS-sensitizing compounds. (A) PPC-1 cells (1×10^5) were seeded in 24 well plates. The next day, cells were treated with CH-11 antibody (100 ng/mL) and 30 μM 6094911, 5809354, or 5569100 with (square) or without (diamond) caspase inhibitor z-VAD-fmk (100 μM). Apoptosis was measured 24 hours later by Annexin V staining, expressing data as percentage of Annexin V-negative (“viable”) cells (mean+SD) (n=3). (B) PPC-1 cells (2×10^5) were seeded in 6 well plates and co-transfected with plasmids encoding Bcl-XL, Crm A, or empty vector along with a green fluorescent protein (GFP) encoding plasmid to identify successfully transfected cells. After 48 hours, cells were treated with CH-11 antibody (100 ng/mL) and 6094911 (30 μM), 5809354 (30 μM), or 5569100 (15 μM). As a positive control, transfected cells were treated with staurosporine (0.5 μM) (STS). Apoptotic cells were identified by morphological assessment of the GFP-positive cells, and data were expressed as the percentage of nonapoptotic (“viable”) cells (mean+SD) (n=3).
Cell death assays. Cell viability was measured by MTT and MTS assays, essentially as described in Schimmer et al. (2004). Absorbance readings were plotted against a standard curve to derive the corresponding cell number, and cell viability was expressed as a percentage relative to untreated cells. Apoptosis was measured by flow cytometric analysis of Annexin V surface expression after staining cells with FITC-anti-Annexin V and propidium iodide (PI) (Biovision, Mountain View, Calif.), as described in Pederson et al. (2002).
To further assess the mechanism of the 8 compounds that selectively modulated tumor sensitivity to extrinsic pathway stimuli, the effects of benzoyl-Val-Ala-Asp-fluoromethylketone (zVAD-fmk), a broad-spectrum irreversible inhibitor of caspase-family proteases (Enzyme Systems, Dublin, Calif.) was tested. Accordingly, PPC-1 cells were treated with CH-11 and sensitizers such as 6094911, 5809354, and 5569100 with and without zVAD-fmk (100 μM) for […]. Apoptosis was then measured by annexin V staining.

FAS or TRAIL receptors = test: Surface expression of FAS or TRAIL receptors by flow cytometry; format: cell-based, human; conditions: PPC-1 cells, flow cytometry (data not shown)
Excerpt: Furthermore, since these compounds sensitize to both FAS and TRAIL, they presumably act distal to death receptors.

4-(4-chloro-2-methylphenoxy)-N-hydroxybutanamide [compound 5809354]
LD50 (μM) (PPCl, CH-11) (PPC-1 cells [1]): 20+2 μM
effect of zVAD-fmk on sensitization to CH-11 (PPC-1 cells [2]): zVAD-fmk blocked sensitization to CH-11
surface expression of FAS or TRAIL receptors (FAS or TRAIL receptors): did not change

CCn1c(=N)n(CC(=O)c2cc(C(C)(C)C)c(O)c(C(C)(C)C)c2)c2ccccc21 [compound 5569100, 1-(3,5-di-tert-butyl-4-hydroxyphenyl)-2-(3-ethyl-2-imino-2,3-dihydro-1H-benzo[d]imidazol-1-yl)ethanone hydrobromide]
IC50 (PPC-1 cells [1]; PPC-1 cells): 15 µM
toxicity when added alone relative to 5541203 (PPC-1 cells [1]; PPC1 cells, without anti-FAS antibody): 3 times
LD50 (μM) (PPCl, CH-11) (PPC-1 cells [1]): 5.6 µM
combination Index (CI) (PPC-1 cells [1]; combined with CH-11, median-dose combination index (Chou, 1991), synergy): did not demonstrate synergy
effect of zVAD-fmk on sensitization to CH-11 (PPC-1 cells [2]): zVAD-fmk blocked sensitization to CH-11
surface expression of FAS or TRAIL receptors (FAS or TRAIL receptors): did not change

CC(=O)CC(=O)Nc1ccc(Cl)c(C(F)(F)F)c1 [compound 6094911, N-[4-chloro-3-(trifluoromethyl)phenyl]-3-oxobutanamide]
IC50 (PPC-1 cells [1]; PPC-1 cells): > 100 µM
LD50 (μM) (PPCl, CH-11) (PPC-1 cells [1]): 35+4 μM
LD50 (μM) (PPCl, CH-11) (PPC-1 cells [1]; listed as N-[4-chloro-3-(trifluoromethyl)phenyl]-3-oxobutanamide): 35 ± 4 µM
direct toxicity (PPC-1 cells [1]; PPC-1 cells, compound alone, concentrations up to 80 μM): little direct toxicity
effect of zVAD-fmk on sensitization to CH-11 (PPC-1 cells [2]): zVAD-fmk blocked sensitization to CH-11
surface expression of FAS or TRAIL receptors (FAS or TRAIL receptors): did not change
